Source: patent US11084800B2 (Achillion Pharmaceuticals, Inc., priority 2017, dated 2021)

What follows are compounds tested against Human Factor D (Homo sapiens (Human), UniProt P00746) (assay: Human Factor D Assay). Conditions: Factor D inhibition, assay of Example 10; read-out: IC5 (Stars).
Human Factor D, sequence (P00746 26-253): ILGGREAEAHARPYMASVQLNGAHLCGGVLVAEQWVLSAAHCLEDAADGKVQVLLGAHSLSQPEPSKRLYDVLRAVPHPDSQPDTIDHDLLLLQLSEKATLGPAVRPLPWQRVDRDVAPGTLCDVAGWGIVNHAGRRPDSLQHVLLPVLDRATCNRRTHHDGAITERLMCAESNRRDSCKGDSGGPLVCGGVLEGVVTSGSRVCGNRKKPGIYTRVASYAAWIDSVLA
Assay type: biochemical
Outline: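 Serum-purified Factor D (80 nM final) preincubated 5 min at room temperature with compound in 50 mM Tris, 1 M NaCl, pH 7.5. Z-L-Lys-SBz and DTNB added at 100 μM each; A405 followed every 30 s for 30 min. IC50 from nonlinear regression of rates versus concentration.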
In the case of `CC(=O)c1nn(CC(=O)N2[C@H](C(=O)Nc3cc(CC(=O)O)cc(Br)n3)C[C@@]3(C)C[C@@H]23)c2ccc(-c3cnc(C)nc3)cc12` [Compound 514, 2-(2-((1R,3S,5R)-2-(2-(3-acetyl-5-(2-methylpyrimidin-5-yl)-1H-indazol-1-yl)acetyl)-5-methyl-2-azabicyclo[3.1.0]hexane-3-carboxamido)-6-bromopyridin-4-yl)acetic Acid], the IC50 is reported as < 1000 nM.

Same assay, conditions: Table 6; Factor D 80 nM, substrate Z-L-Lys-SBz; read-out: IC50
For `CC(=O)c1nn(CC(=O)N2C[C@H](F)C[C@H]2C(=O)Nc2nc(Br)ccc2CC(=O)N(C)C)c2ccc(-c3cnc(C)nc3)cc12` [Compound 117, (2S,4R)-1-(2-(3-Acetyl-5-(2-methylpyrimidin-5-yl)-1H-indazol-1-yl)acetyl)-N-(6-bromo-3-(2-(dimethylamino)-2-oxoethyl)pyridin-2-yl)-4-fluoropyrrolidine-2-carboxamide], the IC50 was < 1000 nM. Compound `CC(=O)c1nn(CC(=O)N2[C@H]3C[C@@]3(CN(C)C)C[C@H]2C(=O)Nc2nc(Br)ccc2C)c2c(C#N)cc(-c3cnc(C)nc3)cc12` [Compound 144, (1S,3S)-2-(2-(3-acetyl-7-cyano-5-(2-methylpyrimidin-5-yl)-1H-indazol-1-yl)acetyl)-N-(6-bromo-3-methylpyridin-2-yl)-5-((dimethylamino)methyl)-2-azabicyclo[3.1.0]hexane-3-carboxamide] has an IC50 of 1000 to 10000 nM. With `CC(=O)c1nn(CC(=O)N2[C@H](C(=O)Nc3nc(Br)ccc3C)C[C@@]3(CN4CC5(CCCC5)C4)C[C@@H]23)c2c(C)cc(-c3cnc(C)nc3)cc12` [Compound 129, (1R,3S,5R)-5-(2-Azaspiro[3.4]octan-2-ylmethyl)-2-(2-(3-acetyl-7-methyl-5-(2-methylpyrimidin-5-yl)-1H-indazol-1-yl)acetyl)-N-(6-bromo-3-methylpyridin-2-yl)-2-azabicyclo[3.1.0]hexane-3-carboxamide] the IC50 was < 1000 nM. In the case of `CC(=O)c1nn(CC(=O)N2[C@H](C(=O)Nc3cccc(C(F)(F)F)n3)C[C@@]3(C)C[C@@H]23)c2c(C)cc(-c3cnc(C)nc3)cc12` [Compound 36, (1R,3S,5R)-2-(2-(3-Acetyl-7-methyl-5-(2-methylpyrimidin-5-yl)-1H-indazol-1-yl)acetyl)-5-methyl-N-(6-(trifluoromethyl)pyridin-2-yl)-2-azabicyclo[3.1.0]hexane-3-carboxamide], the IC50 is reported as < 1000 nM. `C=CCCS(=O)(=O)N(C)C[C@@]12C[C@@H](C(=O)Nc3nc(Br)ccc3C=C)N(C(=O)Cn3nc(C(C)=O)c4cc(-c5cnc(C)nc5)ccc43)[C@@H]1C2` [Compound 188, (1R,3S,5R)-2-(2-(3-Acetyl-5-(2-methylpyrimidin-5-yl)-1H-indazol-1-yl)acetyl)-N-(6-bromo-3-vinylpyridin-2-yl)-5-((N-methylbut-3-en-1-ylsulfonamido)methyl)-2-azabicyclo[3.1.0]hexane-3-carboxamide] was tested, and the IC50 was < 1000 nM. With `CC(=O)c1nn(CC(=O)N2[C@H](C(=O)Nc3ccn(CC(F)(F)F)n3)C[C@@]3(C)C[C@@H]23)c2c(C)cc(-c3cnc(C)nc3)cc12` [Compound 35, (1R,3S,5R)-2-(2-(3-Acetyl-7-methyl-5-(2-methylpyrimidin-5-yl)-1H-indazol-1-yl)acetyl)-5-methyl-N-(1-(2,2,2-trifluoroethyl)-1H-pyrazol-3-yl)-2-azabicyclo[3.1.0]hexane-3-carboxamide] the IC50 was < 1000 nM. In the case of `CC(=O)c1nn(CC(=O)N2[C@H](C(=O)Nc3nc(Br)ccc3C)C[C@@]3(C)C[C@@H]23)c2ccc(-c3cnc(CC(=O)N(C)C)nc3)cc12` [Compound 148, (1R,3S,5R)-2-(2-(3-Acetyl-5-(2-(2-(dimethylamino)-2-oxoethyl)pyrimidin-5-yl)-1H-indazol-1-yl)acetyl)-N-(6-bromo-3-methylpyridin-2-yl)-5-methyl-2-azabicyclo[3.1.0]hexane-3-carboxamide], the IC50 is reported as < 1000 nM.

Same assay, conditions: Table 8; Factor D 80 nM, substrate Z-L-Lys-SBz; read-out: IC50
`Cc1ncc(-c2cc(C#N)c3c(c2)c(C(N)=O)nn3CC(=O)N2[C@H](C(=O)Nc3nc(Br)ccc3C)C[C@@]3(C)C[C@@H]23)cn1` [Compound 515] was tested, and the IC50 was < 1000 nM.
